{"source": "patent US20100167311A1", "about": "“Oxidoreductases and Processes Utilising Such Enzymes” (priority 2006, published 2010)", "molecules": {"B1": {"name": "wild-type Cu-containing nitrite reductase from Alcaligenes faecalis S-6 (protein)", "chain": "QGAVRKATAAEIAALPRQKVELVDPPFVHAHSQVAEGGPKVVEFTMVIEEKKIVIDDAGTEVHAMAFNGTVPGPLMVVHQDDYLELTLINPETNTLMHNIDFHAATGALGGGGLTEINPGEKTILRFKATKPGVFVYHCAPPGMVPWHVVSGMNGAIMVLPREGLHDGKGKALTYDKIYYVGEQDFYVPRDENGKYKKYEAPGDAYEDTVKVMRTLTPTHVVFNGAVGALTGDKAMTAAVGEKVLIVHSQANRDTRPHLIGGHGDYVWATGKFNTPPDVDQETWFIPGGAAGAAFYTFQQPGIYAYVNHNLIEAFELGAAAHFKVTGEWNDDLMTSVLAPSGT"}, "B2": {"name": "Achromobacter cycloclastes NiR M150Q: literature Met150Gln mutant of Achromobacter cycloclastes nitrite reductase (protein, UniProt P25006 39-378, looked up, variant M150Q)", "Copper-containing nitrite …": "AAGAAPVDISTLPRVKVDLVKPPFVHAHDQVAKTGPRVVEFTMTIEEKKLVIDREGTEIHAMTFNGSVPGPLMVVHENDYVELRLINPDTNTLLHNIDFHAATGALGGGALTQVNPGEETTLRFKATKPGVFVYHCAPEGMVPWHVTSGQNGAIMVLPRDGLKDEKGQPLTYDKIYYVGEQDFYVPKDEAGNYKKYETPGEAYEDAVKAMRTLTPTHIVFNGAVGALTGDHALTAAVGERVLVVHSQANRDTRPHLIGGHGDYVWATGKFRNPPDLDQETWLIPGGTAGAAFYTFRQPGVYAYVNHNLIEAFELGAAGHFKVTGEWNDDLMTSVVKPASM"}}, "key": {"type-1 site of NiR M150G [1]": {"target": "T1, type-1 site of NiR M150G (Alcaligenes faecalis, UniProt P38501, M186G)", "T1 construct": "His tag (C, cleaved yes); made in house", "T1 sequence (P38501 other isoform, or with tags, fused parts or gaps M186G)": "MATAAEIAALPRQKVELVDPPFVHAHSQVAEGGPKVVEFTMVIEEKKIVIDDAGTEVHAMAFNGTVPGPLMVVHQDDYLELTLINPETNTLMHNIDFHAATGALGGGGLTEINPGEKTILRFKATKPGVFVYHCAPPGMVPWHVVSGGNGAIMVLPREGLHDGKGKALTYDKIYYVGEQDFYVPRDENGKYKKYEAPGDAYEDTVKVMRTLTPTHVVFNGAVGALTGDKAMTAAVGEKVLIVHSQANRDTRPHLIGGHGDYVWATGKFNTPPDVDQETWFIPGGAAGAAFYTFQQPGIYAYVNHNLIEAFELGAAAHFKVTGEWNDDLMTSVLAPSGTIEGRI", "test": "biochemical", "assay_type": "binding, A. faecalis S-6", "description": "Spectroscopy and assays—The spectrophotometer was a Perkin Elmer Instruments Lambda 800."}, "NiR M150G": {"target": "T2, NiR M150G (Alcaligenes faecalis, UniProt P38501, M186G)", "T2 construct": "His tag (C, cleaved yes); made in house", "T2 sequence (P38501 other isoform, or with tags, fused parts or gaps M186G)": "as above", "test": "Activity assay monitoring oxidation of pseudoazurin, NiR M150G with external ligands", "assay_type": "biochemical, A. faecalis S-6", "conditions": "for effect of external ligand on catalytic activity of NiR M150G: in words; for kcat^sat of NiR M150G saturated with external ligand: pseudoazurin 275-325 μM, nitrite 5 mM, 50 mM Mops pH 7.0", "description": "(§1) Activity assays were carried out by monitoring the oxidation of pseudoazurin as described (3). The concentrations of the electron donor pseudoazurin (275-325 μM) and the electron acceptor nitrite (5 mM) were saturating. The concentration of NiR was typically 1 nM. The buffer for activity assays was always 50 mM Mops pH 7.0. Whenever using volatile compounds, the cuvette was sealed with a PTFE stopper. All reported activities were calculated from initial rates. Apparent dissociation constants (KD^app) were obtained from a least-squares fit of activity (v) versus ligand concentration to v=v^NoLigand+Δv×[L]/(KD^app+[L]). The meaning of KD^app will be explained in the Discussion section."}, "type-1 site of NiR M150G [2]": {"target": "T1, type-1 site of NiR M150G", "assay_type": "binding, A. faecalis S-6", "conditions": "versus NHE, NiR M150G with external ligand bound, interpreted as upper limit", "protocol": "Potentiometric titrations—Potentiometric titrations were carried out as described by Dutton (47) in a cuvette held at 298 K in 100 mM potassium phosphate pH 7.0. The NiR concentration was typically 40 mM. Diaminodurol (2,3,5,6-tetramethyl-1,4-phenylenediamine) was used as a redox mediator at 100-200 μM. Potassium ferricyanide and sodium dithionite were used to change the potential of the solution. Visible absorption and the potential of the solution were monitored until both were stable. Spectra were recorded in the range of 510-800 nm since diaminodurol gives negligible absorbance in this region.\nThe recorded spectra were integrated using a routine written in Igor Pro (WaveMetrics Inc.). For base line correction this routine approximated the scattering contributions (due to aggregated protein) either by a linear approximation or by a method described elsewhere (48). […] The integrated absorbance versus potential was fitted to the Nernst equation with the number of electrons held at one. […]\nin which EM^NL is the reduction potential without ligand, [L] denotes the free ligand concentration, KD^ox and KD^red are the ligand dissociation constants from the oxidized and reduced type-1 site respectively, R is the gas constant, F is the Faraday constant and T is the absolute temperature. […] The midpoint potential of the type-1 site with the external ligand bound (EM^L) was calculated from equation 2. […]"}, "wt NiR": {"target": "T3, wt NiR (Alcaligenes faecalis, UniProt P38501)", "T3 construct": "His tag (C, cleaved yes); made in house", "test": "Activity assay monitoring oxidation of pseudoazurin, wt NiR with external ligands", "assay_type": "biochemical, A. faecalis S-6", "conditions": "for effect of external ligand on catalytic activity of wt NiR: in words", "description": "as §1"}, "pseudoazurin [3]": {"target": "T4, pseudoazurin (UniProt P04377)", "T4 sequence": "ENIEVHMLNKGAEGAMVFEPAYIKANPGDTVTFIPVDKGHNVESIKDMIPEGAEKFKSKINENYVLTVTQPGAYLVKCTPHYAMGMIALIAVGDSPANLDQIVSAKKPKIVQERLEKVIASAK"}, "pseudoazurin, P04377": {"target": "T5, pseudoazurin, P04377", "T5 chain": "T4 sequence"}, "pseudoazurin [4]": {"system": "pseudoazurin", "test": "Catalytic activity of NiR variants with the physiological electron donor pseudoazurin and nitrite", "assay_type": "biochemical, A. faecalis S-6", "conditions": "no external ligand; pseudoazurin 275-325 μM, nitrite 5 mM, 50 mM Mops pH 7.0", "description": "as §1"}, "[5]": {"conditions": "in words; cited from earlier work"}}}
{"molecule": "Cc1cscn1", "note": "[4-methylthiazole]", "values": [{"measurement": "Kd", "setting": "type-1 site of NiR M150G [1]", "value": "22 ± 3", "unit": "mM"}]}
{"molecule": "CC(N)=O", "note": "[acetamide]", "values": [{"measurement": "Kd", "setting": "type-1 site of NiR M150G [1]", "value": "71 ± 3", "unit": "mM"}, {"measurement": "effect of external ligand on catalytic activity of NiR M150G", "setting": "NiR M150G", "value": "restored the activity up to the level of wt NiR"}, {"measurement": "kcat^sat of NiR M150G saturated with external ligand", "setting": "NiR M150G", "value": "374 ± 28", "unit": "s⁻¹"}, {"measurement": "fitted reduction potential with ligand bound (EM^L)", "setting": "type-1 site of NiR M150G [2]", "value": "< 225", "unit": "mV"}]}
{"molecule": "CC#N", "note": "[acetonitrile]", "values": [{"measurement": "Kd", "setting": "type-1 site of NiR M150G [1]", "value": "71.5 ± 7.3", "unit": "mM"}, {"measurement": "kcat^sat of NiR M150G saturated with external ligand", "setting": "NiR M150G", "value": ">390^A s^−1"}, {"measurement": "increase of catalytic activity", "setting": "wt NiR; wt NiR", "value": 50, "unit": "%"}]}
{"molecule": "CSC", "note": "[dimethylsulfide]", "values": [{"measurement": "Kd", "setting": "type-1 site of NiR M150G [1]", "value": "21 ± 4", "unit": "mM"}, {"measurement": "Kd", "setting": "NiR M150G", "value": "34 ± 7", "unit": "mM"}, {"measurement": "effect of external ligand on catalytic activity of NiR M150G", "setting": "NiR M150G", "value": "restored the activity up to the level of wt NiR"}, {"measurement": "kcat^sat of NiR M150G saturated with external ligand", "setting": "NiR M150G", "value": "373 ± 22", "unit": "s⁻¹"}]}
{"molecule": "CCSC", "note": "[ethylmethylsulfide]", "values": [{"measurement": "Kd", "setting": "type-1 site of NiR M150G [1]", "value": "14 ± 6", "unit": "mM"}, {"measurement": "Kd", "setting": "NiR M150G", "value": "> 73", "unit": "mM"}, {"measurement": "effect of external ligand on catalytic activity of NiR M150G", "setting": "NiR M150G", "value": "activity doubled"}, {"measurement": "kcat^sat of NiR M150G saturated with external ligand", "setting": "NiR M150G", "value": ">292", "unit": "s⁻¹"}, {"measurement": "effect of external ligand on catalytic activity of wt NiR", "setting": "wt NiR", "value": "constant activity"}]}
{"molecule": "NC=O", "note": "[formamide]", "values": [{"measurement": "effect of external ligand on catalytic activity of NiR M150G", "setting": "NiR M150G", "value": "activity doubled"}, {"measurement": "kcat^sat of NiR M150G saturated with external ligand", "setting": "NiR M150G", "value": ">255", "unit": "s⁻¹"}, {"measurement": "effect of external ligand on catalytic activity of wt NiR", "setting": "wt NiR", "value": "constant activity"}]}
{"molecule": "c1c[nH]cn1", "note": "[imidazole]", "values": [{"measurement": "Kd", "setting": "type-1 site of NiR M150G [1]", "value": "52 ± 3", "unit": "mM"}, {"measurement": "rate of slow spectral change (absorption at 430 nm versus time, single exponential)", "setting": "type-1 site of NiR M150G [1]; NiR M150G with imidazole 260 mM, 25° C.", "value": "0.823 ± 0.003", "unit": "h⁻¹"}, {"measurement": "effect of external ligand on catalytic activity of NiR M150G", "setting": "NiR M150G", "value": "decreased in activity"}, {"measurement": "effect of external ligand on catalytic activity of wt NiR", "setting": "wt NiR", "value": "decreased in activity"}]}
{"molecule": "c1ccncc1", "note": "[pyridine]", "values": [{"measurement": "fitted reduction potential with ligand bound (EM^L)", "setting": "type-1 site of NiR M150G [2]", "value": "< 245", "unit": "mV"}]}
{"molecule": "nitrite reductase M150G from Alcaligenes faecalis S-6", "values": [{"measurement": "kcat^sat (oxidation of pseudoazurin, no external ligand)", "setting": "pseudoazurin [3]", "value": 133, "unit": "s⁻¹"}, {"measurement": "kcat^sat (oxidation of pseudoazurin, saturated with acetamide)", "setting": "pseudoazurin [3]", "value": 374, "unit": "s⁻¹"}, {"measurement": "kcat^sat (oxidation of pseudoazurin, saturated with dimethylsulfide)", "setting": "pseudoazurin [3]", "value": 373, "unit": "s⁻¹"}, {"measurement": "kcat^sat (oxidation of pseudoazurin, with acetonitrile)", "setting": "pseudoazurin [3]", "value": ">390^A"}, {"measurement": "kcat^sat (oxidation of pseudoazurin, with ethylmethylsulfide)", "setting": "pseudoazurin [3]", "value": "> 292", "unit": "s⁻¹"}, {"measurement": "kcat^sat (oxidation of pseudoazurin, with formamide)", "setting": "pseudoazurin [3]", "value": "> 255", "unit": "s⁻¹"}]}
{"molecule": "nitrite reductase M150H from Alcaligenes faecalis S-6", "values": [{"measurement": "kcat^sat (oxidation of pseudoazurin, no external ligand)", "setting": "pseudoazurin [3]", "value": 0.099, "unit": "s⁻¹"}]}
{"molecule": "nitrite reductase M150T from Alcaligenes faecalis S-6", "values": [{"measurement": "kcat^sat (oxidation of pseudoazurin, no external ligand)", "setting": "pseudoazurin [3]", "value": 126, "unit": "s⁻¹"}]}
{"molecule": "B1", "values": [{"measurement": "kcat^sat (oxidation of pseudoazurin, no external ligand)", "setting": "pseudoazurin, P04377", "value": 416, "unit": "s⁻¹"}, {"measurement": "kcat^sat", "setting": "pseudoazurin [4]", "value": "416 ± 10", "unit": "s⁻¹"}]}
{"molecule": "B2", "values": [{"measurement": "electron transfer rate (literature)", "setting": "[5]", "value": "decreased below the detection limit"}]}
